Measurements: patent US20260000676A1, “CHROMAN DERIVATIVES AS ESTROGEN RECEPTOR DEGRADERS” (THE REGENTS OF THE UNIVERSITY OF MICHIGAN, priority 2022, published 2026)

molecular target: CRBN/DDB1 (Homo sapiens (Human), UniProt Q96SW2); assay: HTRF binding assay to CRBN/DDB1; conditions: read-out: CRBN HTRF IC50
Description: The binding potency was determined using HTRF assay technology (Perkin Elmer). Compounds were serially diluted in DMSO and 0.2 μL volume was transferred to white 384-well plate.

Sequence of CRBN/DDB1 (Q96SW2 whole entry): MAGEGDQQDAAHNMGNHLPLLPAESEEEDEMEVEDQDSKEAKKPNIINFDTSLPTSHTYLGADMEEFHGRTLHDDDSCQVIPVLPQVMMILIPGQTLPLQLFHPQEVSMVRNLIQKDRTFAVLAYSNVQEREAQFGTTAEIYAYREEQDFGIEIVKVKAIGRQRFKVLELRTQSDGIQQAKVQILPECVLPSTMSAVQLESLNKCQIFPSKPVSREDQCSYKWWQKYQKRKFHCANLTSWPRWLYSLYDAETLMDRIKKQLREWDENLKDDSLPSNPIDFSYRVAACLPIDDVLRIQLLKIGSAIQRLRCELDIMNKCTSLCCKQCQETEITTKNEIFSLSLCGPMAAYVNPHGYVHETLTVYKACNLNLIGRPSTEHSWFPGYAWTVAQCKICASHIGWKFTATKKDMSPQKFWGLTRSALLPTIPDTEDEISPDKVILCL
Sequence of CRBN/DDB1 (Q16531 whole entry partner): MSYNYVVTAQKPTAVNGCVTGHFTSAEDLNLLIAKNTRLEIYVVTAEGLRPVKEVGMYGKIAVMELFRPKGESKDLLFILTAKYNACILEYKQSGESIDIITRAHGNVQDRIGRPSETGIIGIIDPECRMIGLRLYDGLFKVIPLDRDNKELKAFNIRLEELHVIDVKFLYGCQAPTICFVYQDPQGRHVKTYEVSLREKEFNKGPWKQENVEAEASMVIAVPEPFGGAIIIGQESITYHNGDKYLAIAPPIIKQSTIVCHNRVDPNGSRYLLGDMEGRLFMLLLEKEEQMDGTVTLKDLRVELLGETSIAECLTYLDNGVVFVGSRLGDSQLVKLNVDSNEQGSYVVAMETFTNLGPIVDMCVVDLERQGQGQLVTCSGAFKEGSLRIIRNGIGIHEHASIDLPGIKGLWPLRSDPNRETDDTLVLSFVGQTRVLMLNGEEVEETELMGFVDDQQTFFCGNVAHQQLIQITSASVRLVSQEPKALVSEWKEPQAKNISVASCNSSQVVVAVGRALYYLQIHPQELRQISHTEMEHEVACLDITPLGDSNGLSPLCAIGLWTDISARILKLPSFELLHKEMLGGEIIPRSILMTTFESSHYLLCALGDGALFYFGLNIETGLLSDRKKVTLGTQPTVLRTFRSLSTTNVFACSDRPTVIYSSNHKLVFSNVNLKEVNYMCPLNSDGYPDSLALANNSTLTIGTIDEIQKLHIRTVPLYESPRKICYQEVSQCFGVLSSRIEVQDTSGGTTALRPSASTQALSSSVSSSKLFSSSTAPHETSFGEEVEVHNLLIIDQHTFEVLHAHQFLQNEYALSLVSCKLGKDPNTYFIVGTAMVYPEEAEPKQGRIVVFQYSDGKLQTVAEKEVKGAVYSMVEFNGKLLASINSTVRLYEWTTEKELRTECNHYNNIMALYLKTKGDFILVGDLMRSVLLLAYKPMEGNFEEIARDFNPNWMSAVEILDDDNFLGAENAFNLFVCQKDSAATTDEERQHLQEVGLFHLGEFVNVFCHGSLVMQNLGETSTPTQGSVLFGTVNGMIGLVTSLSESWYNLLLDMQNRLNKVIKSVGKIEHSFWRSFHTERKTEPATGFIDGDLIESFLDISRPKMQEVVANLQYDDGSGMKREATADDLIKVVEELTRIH

| Compound | IC50 |
| --- | --- |
| O=C1CCC(N2C(=O)c3cc4c(cc3C2=O)CN(CC(=O)N2CCC3(CC2)CCN(c2ncc([C@@H]5c6ccc(O)cc6OC[C@@H]5c5ccccc5)cn2)CC3)C4)C(=O)N1 (stereo partly drawn) [Compound A5, 2-(2,6-dioxopiperidin-3-yl)-6-(2-(9-(5-((3S,4R)-7-hydroxy-3-phenylchroman-4-yl)pyrimidin-2-yl)-3,9-diazaspiro[5.5]undecan-3-yl)-2-oxoethyl)-6,7-dihydropyrrolo[3,4-f]isoindole-1,3(2H,5H)-dione] | 0.5 to 5 µM |
| O=C1CCC(N2Cc3cc4c(cc3C2=O)OC[C@@H]2CN(CC3CCN(c5ncc([C@H]6c7ccc(O)cc7OC[C@H]6c6ccccc6)cn5)CC3)CCN42)C(=O)N1 (stereo partly drawn) [Compound A18, 3-((S)-3-((1-(5-((3R,4S)-7-hydroxy-3-phenylchroman-4-yl)pyrimidin-2-yl)piperidin-4-yl)methyl)-8-oxo-1,2,3,4,4a,5,8,10-octahydro-9H-pyrazino[1′,2′:4,5][1,4]oxazino[2,3-f]isoindol-9-yl)piperidine-2,6-dione] | 0.5 to 5 µM |
| O=C1CCC(N2Cc3c(ccc4c3OC[C@@H]3CN(CC5CC6(CCN(c7ccc([C@@H]8c9ccc(O)cc9OC[C@@H]8c8ccccc8)cc7)CC6)C5)CCN43)C2=O)C(=O)N1 (stereo partly drawn) [Compound A22, 3-((S)-7-((7-(4-((3S,4R)-7-hydroxy-3-phenylchroman-4-yl)phenyl)-7-azaspiro[3.5]nonan-2-yl)methyl)-1-oxo-1,3,5,5a,6,7,8,9-octahydro-2H-pyrazino[1′,2′:4,5][1,4]oxazino[2,3-e]isoindol-2-yl)piperidine-2,6-dione] | < 0.05 µM |
| O=C1CCC(N2C(=O)c3cc4c(cc3C2=O)CN(CC(=O)N2CCC3(CC2)CCN(c2ncc([C@H]5c6ccc(O)cc6OC[C@H]5c5ccccc5)cn2)CC3)C4)C(=O)N1 (stereo partly drawn) [Compound A4, 2-(2,6-dioxopiperidin-3-yl)-6-(2-(9-(5-((3R,4S)-7-hydroxy-3-phenylchroman-4-yl)pyrimidin-2-yl)-3,9-diazaspiro[5.5]undecan-3-yl)-2-oxoethyl)-6,7-dihydropyrrolo[3,4-f]isoindole-1,3(2H,5H)-dione] | 0.5 to 5 µM |
| COc1ccc([C@@H]2COc3cc(O)ccc3[C@@H]2c2ccc(N3CCC(CN4CCN5c6ccc7c(c6OC[C@@H]5C4)CN(C4CCC(=O)NC4=O)C7=O)CC3)cc2)cc1 (single isomer, unassigned) [Compound A12] | 0.05 to 0.5 µM |
| O=C1CCC(N2Cc3cc4c(cc3C2=O)OC[C@@H]2CN(CC3CCN(c5ncc([C@@H]6c7ccc(O)cc7OC[C@@H]6c6ccccc6)cn5)CC3)CCN42)C(=O)N1 (stereo partly drawn) [Compound A10, 3-((S)-3-((1-(5-((3S,4R)-7-hydroxy-3-phenylchroman-4-yl)pyrimidin-2-yl)piperidin-4-yl)methyl)-8-oxo-1,2,3,4,4a,5,8,10-octahydro-9H-pyrazino[1′,2′:4,5][1,4]oxazino[2,3-f]isoindol-9-yl)piperidine-2,6-dione] | 0.5 to 5 µM |
| COc1cccc([C@@H]2COc3cc(O)ccc3[C@@H]2c2ccc(N3CCC(CN4CCN5c6ccc7c(c6OC[C@@H]5C4)CN(C4CCC(=O)NC4=O)C7=O)CC3)cc2)c1 (single isomer, unassigned) [Compound A24] | < 0.05 µM |
| O=C1CCC(N2Cc3c(ccc4c3OC[C@@H]3CN(CC5CC6(CCN(c7ccc([C@H]8c9ccc(O)cc9OC[C@H]8c8ccccc8)cc7)CC6)C5)CCN43)C2=O)C(=O)N1 (single isomer, unassigned) [Compound A21, 3-((S)-7-((7-(4-((3R,4S)-7-hydroxy-3-phenylchroman-4-yl)phenyl)-7-azaspiro[3.5]nonan-2-yl)methyl)-1-oxo-1,3,5,5a,6,7,8,9-octahydro-2H-pyrazino[1′,2′:4,5][1,4]oxazino[2,3-e]isoindol-2-yl)piperidine-2,6-dione] | < 0.05 µM |
| COc1ccc([C@@H]2COc3cc(O)ccc3[C@@H]2c2ccc(N3CCC(CN4CCN5c6ccc7c(c6OC[C@H]5C4)CN(C4CCC(=O)NC4=O)C7=O)CC3)cc2)cc1 (single isomer, unassigned) [Compound A15] | 0.05 to 0.5 µM |
| O=C1CCC(N2Cc3cc4c(cc3C2=O)OC[C@@H]2CN(CC3CCN(c5ccc([C@H]6c7ccc(O)cc7OC[C@H]6c6ccccc6)cc5)CC3)CCN42)C(=O)N1 (stereo partly drawn) [Compound A11, 3-((S)-3-((1-(4-((3R,4S)-7-hydroxy-3-phenylchroman-4-yl)phenyl)piperidin-4-yl)methyl)-8-oxo-1,2,3,4,4a,5,8,10-octahydro-9H-pyrazino[1′,2′:4,5][1,4]oxazino[2,3-f]isoindol-9-yl)piperidine-2,6-dione] | > 5 µM |
| COc1ccc([C@H]2COc3cc(O)ccc3[C@H]2c2ccc(N3CCC(CN4CCN5c6ccc7c(c6OC[C@@H]5C4)CN(C4CCC(=O)NC4=O)C7=O)CC3)cc2)cc1 (single isomer, unassigned) [Compound A13] | 0.05 to 0.5 µM |
| Cc1nn(C2CCC(=O)NC2=O)c2ccc(N3CCN(CC4CC5(CCN(c6ccc([C@@H]7c8ccc(O)cc8OC[C@@H]7c7ccccc7)cc6)CC5)C4)CC3)cc12 (single isomer, unassigned) [Compound A25] | 0.05 to 0.5 µM |
| COc1cccc([C@H]2COc3cc(O)ccc3[C@H]2c2ccc(N3CCC(CN4CCN5c6ccc7c(c6OC[C@@H]5C4)CN(C4CCC(=O)NC4=O)C7=O)CC3)cc2)c1 (single isomer, unassigned) [Compound A23] | < 0.05 µM |
| O=C1CCC(N2Cc3c(ccc4c3OC[C@@H]3CN(CC5CCN(c6ncc([C@H]7c8ccc(O)cc8OC[C@H]7c7ccccc7)cn6)CC5)CCN43)C2=O)C(=O)N1 (single isomer, unassigned) [Compound A19] | 0.05 to 0.5 µM |
| O=C1CCC(Nc2ccc(N3CCN(CC4CCN(c5ccc([C@@H]6c7ccc(O)cc7OC[C@@H]6c6ccccc6)cc5)CC4)CC3)c(F)c2)C(=O)N1 (stereo partly drawn) [Compound A30, 3-((3-fluoro-4-(4-((1-(4-((3S,4R)-7-hydroxy-3-phenylchroman-4-yl)phenyl)piperidin-4-yl)methyl)piperazin-1-yl)phenyl)amino)piperidine-2,6-dione] | 0.5 to 5 µM |
| O=C1CCC(N2C(=O)c3cc4c(cc3C2=O)CN(C(=O)CN2CC3(CCN(c5ccc([C@@H]6c7ccc(O)cc7OC[C@@H]6c6ccccc6)cc5)CC3)C2)C4)C(=O)N1 (stereo partly drawn) [Compound A32, 2-(2,6-dioxopiperidin-3-yl)-6-(2-(7-(4-((3S,4R)-7-hydroxy-3-phenylchroman-4-yl)phenyl)-2,7-diazaspiro[3.5]nonan-2-yl)acetyl)-6,7-dihydropyrrolo[3,4-f]isoindole-1,3(2H,5H)-dione] | 0.5 to 5 µM |
| O=C1CCC(N2Cc3cc4c(cc3C2=O)OC[C@@H]2CN(CC3CC5(CCN(c6ccc([C@@H]7c8ccc(O)cc8OC[C@@H]7c7ccccc7)cc6)CC5)C3)CCN42)C(=O)N1 (stereo partly drawn) [Compound A28, 3-((S)-3-((7-(4-((3S,4R)-7-hydroxy-3-phenylchroman-4-yl)phenyl)-7-azaspiro[3.5]nonan-2-yl)methyl)-8-oxo-1,2,3,4,4a,5,8,10-octahydro-9H-pyrazino[1′,2′:4,5][1,4]oxazino[2,3-f]isoindol-9-yl)piperidine-2,6-dione] | > 5 µM |
| O=C1CCC(Nc2ccc(N3CCN(CC4CCN(c5ccc([C@@H]6c7ccc(O)cc7OC[C@@H]6c6ccccc6)cc5F)CC4)CC3)c(F)c2)C(=O)N1 (stereo partly drawn) [Compound A29, 3-((3-fluoro-4-(4-((1-(2-fluoro-4-((3S,4R)-7-hydroxy-3-phenylchroman-4-yl)phenyl)piperidin-4-yl)methyl)piperazin-1-yl)phenyl)amino)piperidine-2,6-dione] | 0.5 to 5 µM |
